{"source": "the supplement of paper PMC10307832", "assay_in_all_cases": "relative viability (nuclei count vs DMSO), 5 days (fraction); higher = more cells survive", "key": {"[1]": {"compound": "NC1(c2ccc(-c3nc4ccn5c(=O)[nH]nc5c4cc3-c3ccccc3)cc2)CCC1 [MK-2206] + CS(=O)(=O)CCNCc1ccc(-c2ccc3ncnc(Nc4ccc(OCc5cccc(F)c5)c(Cl)c4)c3c2)o1 [Lapatinib] (partner 2 µM)", "in_short": "(§1)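 Values are medians from duplicate plates. Each reflects relative viability, defined as the nuclei count of treated wells over that of vehicle wells. Lung cancer cell lines in 1536-well plates were pin-tool dosed one day after seeding with one drug alone or with a fixed anchor-drug dose plus five library-drug doses (not always all listed) in √10 steps, then fixed, stained and imaged at 4× after 5 days.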"}, "[2]": {"compound": "NC1(c2ccc(-c3nc4ccn5c(=O)[nH]nc5c4cc3-c3ccccc3)cc2)CCC1 [MK-2206] + CC(C)C[C@H](NC(=O)[C@H](Cc1ccccc1)NC(=O)c1cnccn1)B(O)O [Bortezomib] (partner 0.002 µM)", "in_short": "as §1"}, "[3]": {"compound": "CS(=O)(=O)N1CCN(Cc2cc3nc(-c4cccc5[nH]ncc45)nc(N4CCOCC4)c3s2)CC1 [Pictilisib] + Nc1ncn([C@H]2C[C@H](O)[C@@H](CO)O2)c(=O)n1 [Decitabine] (partner 2 µM)", "in_short": "as §1"}, "[4]": {"compound": "NC1(c2ccc(-c3nc4ccn5c(=O)[nH]nc5c4cc3-c3ccccc3)cc2)CCC1 [MK-2206] + CC1(C)CCC(c2ccc(Cl)cc2)=C(CN2CCN(c3ccc(C(=O)NS(=O)(=O)c4ccc(N[C@H](CCN5CCOCC5)CSc5ccccc5)c(S(=O)(=O)C(F)(F)F)c4)cc3)CC2)C1 [Navitoclax] (partner 0.5 µM)", "in_short": "as §1"}, "[5]": {"compound": "NC1(c2ccc(-c3nc4ccn5c(=O)[nH]nc5c4cc3-c3ccccc3)cc2)CCC1 [MK-2206] + Cc1cc(Nc2cc(N3CCN(C)CC3)nc(Sc3ccc(NC(=O)C4CC4)cc3)n2)n[nH]1 [Tozasertib] (partner 0.1 µM)", "in_short": "as §1"}}}
{"cell line": "UMC-11", "values": [{"measurement": "relative viability", "setting": "[1]; first compound 0.01 µM", "result": 1.27}, {"measurement": "relative viability", "setting": "[1]; first compound 0.03162 µM", "result": 1.1}, {"measurement": "relative viability", "setting": "[1]; first compound 0.3162 µM", "result": 0.99}, {"measurement": "relative viability", "setting": "[1]; first compound 1 µM", "result": 0.941}, {"measurement": "relative viability", "setting": "[2]; first compound 0.01 µM", "result": 0.668}, {"measurement": "relative viability", "setting": "[2]; first compound 0.03162 µM", "result": 0.793}, {"measurement": "relative viability", "setting": "[2]; first compound 0.3162 µM", "result": 0.852}, {"measurement": "relative viability", "setting": "[2]; first compound 1 µM", "result": 0.389}, {"measurement": "relative viability", "setting": "[3]; first compound 0.02 µM", "result": 0.644}, {"measurement": "relative viability", "setting": "[3]; first compound 0.06325 µM", "result": 0.724}, {"measurement": "relative viability", "setting": "[3]; first compound 0.6325 µM", "result": 0.566}, {"measurement": "relative viability", "setting": "[3]; first compound 2 µM", "result": 0.519}, {"measurement": "relative viability", "setting": "[4]; first compound 0.01 µM", "result": 0.309}, {"measurement": "relative viability", "setting": "[4]; first compound 0.03162 µM", "result": 0.327}, {"measurement": "relative viability", "setting": "[4]; first compound 0.3162 µM", "result": 0.344}, {"measurement": "relative viability", "setting": "[4]; first compound 1 µM", "result": 0.29}, {"measurement": "relative viability", "setting": "[5]; first compound 0.01 µM", "result": 0.194}, {"measurement": "relative viability", "setting": "[5]; first compound 0.03162 µM", "result": 0.2}, {"measurement": "relative viability", "setting": "[5]; first compound 0.3162 µM", "result": 0.214}, {"measurement": "relative viability", "setting": "[5]; first compound 1 µM", "result": 0.192}]}
